The results in this text go back to patent US11414379B2, “SPAK kinase inhibitors as neuroprotective agents” (United States Government as represented by the Department …, priority 2018, dated 2022).

pIC50: −log10 of the molar value.

Experiment [1] deals with mouse model of ischemic stroke. The experiment is described as follows: Infarct volume and hemispheric swelling after transient MCAO. In kind it is in vivo. From the text: Under an operating microscope, the left common carotid artery was exposed through a midline incision. […] The ECA was dissected further distally and permanently ligated. The internal carotid artery (ICA) was isolated and carefully separated from the adjacent vagus nerve. A 12 mm length of silicon-coated nylon filament (size 6-0, native diameter 0.11 mm; diameter with coating 0.21+/−0.02 mm; coating length 5-6 mm; Doccol Corporation, Sharon, Mass.) was introduced into the ECA lumen through a puncture. The silk suture around the ECA stump was tightened around the intraluminal nylon suture to prevent bleeding. The nylon suture was then gently advanced from the ECA to the ICA lumen until mild resistance was felt (˜9 mm). For reperfusion, the suture was withdrawn 50 min after MCAO to restore blood flow. Body temperature was maintained for the duration of the experiment between 36.5° C.-37° C. with a small animal heating pad (Kent Scientific).
At 24 hours reperfusion, mice were anesthetized with 5% isoflurane and then decapitated. Coronal brain tissue slices (2 mm) were stained for 20 minutes at 37° C. with 1% 2,3,5-triphenyltetrazolium chloride monohydrate (TTC; Sigma, St Louis, Mo.) in PBS solution. […] The extent of hemispheric swelling was calculated using the following equation: swelling (% contralateral side)=[(volume of ipsilateral hemisphere−volume of contralateral hemisphere)/volume of contralateral hemisphere]×100 (Bhuiyan et al. (2017) Journal of cerebral blood flow and metabolism: official journal of the International Society of Cerebral Blood Flow and Metabolism 37: 2780-2794).
Referring to FIG. 11A, an experimental design of ischemic stroke study is shown. Vehicle or ZT-1a is administered at 3 hrs and 8 hrs post-MCAO.
Referring to FIG. 11B, representative images and quantification of infarct volume and hemispheric swelling in TTC-stained coronal sections of mouse brains 24 hrs post-MCAO are shown. Vehicle (DMSO, 2 ml/kg) or ZT-1a (2.5 or 5.0 mg/kg) were administered with an initial half dose at 3 hrs and the second half dose at 8 hr reperfusion via intra-peritoneal injection (i.p.). Data are mean±SD, n=6-12 per group (male). * p<0.05.

Experiment [2] concerns KCC2 pThr1007 and NKCC1 pThr203/207/212. The experiment is described as follows: In vivo pharmacodynamic analysis, brain. Also noted: species or system mouse. Particulars: naïve brains; 60 minutes after administration. The procedure: Male C57BL/6j wild-type mice (6 weeks old) were purchased from Charles River Laboratories Edinburgh UK. ZT-1a was dissolved in DMSO (Sigma) solution and administered by subcutaneous injection into wild type male C57BL/6 mice at doses of 0, 3, 10, 30, 50 and 100 mg/kg. 50 mg/kg Closantel (1) was injected as a comparative control. Age-matched SPAK^502A/502A knock-in mice were also used as comparative controls (Zhang et al. (2015) Human molecular genetics 24: 4545-455). Control mice were treated with an equal volume of DMSO solution. One hour after administration, mice were sacrificed by cervical dislocation, and kidney and brain tissues were rapidly dissected and snap-frozen in liquid nitrogen. The SPAK^502A/502A knock-in mouse was established and maintained under specific pathogen-free conditions at the University of Dundee (UK) as described in our recent study.
Referring to FIG. 9A and FIG. 9B, in vivo pharmacodynamic analysis of ZT-1a was performed. ZT-1a and Closantel were administered via subcutaneous injection at the indicated doses. Brain (FIG. 9A) and kidney (FIG. 9B) tissues were collected, and endogenous proteins were subjected to immunoblot probed with SPAK, NKCC1 and NCC phospho-specific antibodies.

The next experiment addresses T1, human SPAK 452-547(end) (Homo sapiens, UniProt Q9UEW8).
T1 construct: Purified human SPAK 452-547(end); made in house; host or cells: E. coli
The experiment is described as follows: Fluorescence polarization, SPAK-WNK peptide interaction. In kind it is binding. To be noted: for pIC50: Lumio-Green-labelled WNK peptide 10 nM, read-out: IC50, concentration-dependent decrease in fluorescence polarization; for disruption of binding between WNK4 and the SPAK CCT domain: fluorescence polarization. The procedure: Fluorescence polarization measurements were performed at 25° C. with purified SPAK proteins in 50 mM Tris/HCl, pH 7.5, 150 mM NaCl and 2 mM DTT. The concentration of SPAK proteins was determined by measuring their absorbance at 280 nm and calculated using the molar absorption coefficient determined by the ProtParam Online tool (Gasteiger et al., 2001). All peptides ([…] [EP4543] and […] [EP4544]; SEQ ID NO:2 and SEQ ID NO:3, respectively) contained an N-terminal linker required for conjugating to the Lumio Green fluorophore ([…]; SEQ ID NO:4) and were initially re-suspended in 50 mM ammonium bicarbonate, pH 8. Peptide labelling was achieved by incubating […] of each peptide in a 0.5 ml reaction mixture of 20 μM Lumio Green in 25 mM Tris/HCl, pH 7.5, 200 mM NaCl and 5 mM 2-mercaptoethanol. Reactions were left to proceed in the dark for 2 h. The peptides were dialysed for 4 h into 25 mM Tris/HCl, pH 7.5, 200 mM NaCl and 5 mM 2-mercaptoethanol using a Micro DispoDIALYZER with a 100 Da molecular-mass cut-off (Harvard Apparatus), and then for another 12 h with changed buffer. For fluorescence polarization, mixtures were set up containing the indicated concentration of protein, 10 nM Lumio-Green-labelled peptide in a final volume of 30 μl. All individual bindings were performed in duplicate with at least 12 data points per curve. Fluorescence polarization was measured using a BMG PheraStar plate reader, with an excitation wavelength of 485 nm and an emission wavelength of 538 nm, and measurements were corrected to the fluorescent probe alone. Data analysis and graphing were then performed in GraphPad Prism7; a one-site specific binding model was assumed (Y=Bmax*X/[Kd+X]) and the fitted dissociation constant computed. All experimental bindings were repeated at least twice.
Referring to FIG. 5A, analysis of SPAK-WNK interaction by fluorescence polarization is shown. Purified human SPAK 452-547(end) and human SPAK 452-547 with L491A (equivalent to L502 in mouse) were diluted appropriately and mixed at a 1:1 volume ratio with 20 nM Lumino-Green-labelled WNK peptide (RFQV or AFQV) to the concentration stated in the Figure (with the final peptide concentration consistent at 10 nM), and fluorescent polarization measurements were made. Binding curves, assuming one-site-specific binding, were then generated with Prism6 using milli-polarization (mP) units.

For `Cc1cc(C(C#N)c2ccc(Cl)cc2)c(Cl)cc1NC(=O)c1cc(Cl)ccc1O` (centres unmarked) [ZT-1a, 5-chloro-N-(5-chloro-4-((4-chlorophenyl)(cyano)methyl)-2-methylphenyl)-2-hydroxy-benzamide], the infarct volume in experiment [1] (5 mg/kg i.p., post-stroke from 3 hr reperfusion, 24 hrs post-MCAO, mean±SD) is given as 50.4±27.0 mm^3. In experiment [1] (5 mg/kg i.p., post-stroke from 3 hr reperfusion, 24 hrs post-MCAO, vs vehicle), the “decrease of infarct volume” value is given as approximately 35%. For the same compound, in experiment [1] (2.5 or 5 mg/kg, 24 hrs post-MCAO, vs vehicle), the “reduction of cerebral hemispheric swelling” value is on record as 36 to 50%. Further, the “effect on KCC2 (pThr1007) or NKCC1 (pThr203/207/212) phosphorylation” value in experiment [2] is “neither drug reduced”. At human SPAK 452-547(end), the pIC50 was 3.49; the “disruption of binding between WNK4 and the SPAK CCT domain” value was “did not disrupt”.

In the case of `Cc1cc(C(C#N)c2ccc(Cl)cc2)c(Cl)cc1NC(=O)c1cc(I)cc(I)c1O` (centres unmarked) [Closantel], the “effect on infarct volume and hemispheric swelling” value is on record as “ineffective” in experiment [1] (0.1 mg/kg dose); “dose-dependently reduced” in experiment [1] (1.0 or 2.5 mg/kg at 3 hr and at 8 hr reperfusion). Further, the “effect on KCC2 (pThr1007) or NKCC1 (pThr203/207/212) phosphorylation” value in experiment [2] is given as “neither drug reduced”. The pIC50 on human SPAK 452-547(end) is less than 3.00. Moreover, on human SPAK 452-547(end), the “disruption of binding between WNK4 and the SPAK CCT domain” value is “did not disrupt”.
